Reference: patent US20170303543A1, “AGRICHEMICAL COMPOSITIONS AND METHODS OF MAKING AND USING SAME” (priority 2014, published 2017)

System: Xanthomonas alfalfae
Assay: Alamar Blue assay for antimicrobial activity (FIG. 11)
Type: cell-based
Conditions: metallic zinc concentration as low as 50 PPM, components at relevant concentrations
Excerpt: FIG. 11A, FIG. 11B, FIG. 11C and FIG. 11D show a series of images illustrating Alamar Blue assay in accordance with the embodiments. […] It is to be understood that this disclosure is not limited to the foregoing particular embodiments described, as such may, of course, vary. It is also to be understood that the terminology used herein is for the purpose of describing particular embodiments only, and is not intended to be limiting, since the scope of the present disclosure will be limited only by the appended claims.

## NC(N)=O [urea]
  antimicrobial effect against Xanthomonas alfalfae: did not elicit similar effect

## OO [hydrogen peroxide]
  antimicrobial effect against Xanthomonas alfalfae: did not elicit similar effect

## [Zn+2] [divalent zinc ion]
  antimicrobial effect against Xanthomonas alfalfae: did not elicit similar effect
